Earlier results on one compound are cited in patent US20080131503A1 (priority 2005, published 2008).

The conditions of the data set: oral.

Regarding `CC(C)c1c(C(=O)Nc2ccccc2)c(-c2ccccc2)c(-c2ccc(F)cc2)n1CC[C@@H](O)C[C@@H](O)CC(=O)O` [Atorvastatin], the “Systemic availability of HMG-CoA reductase inhibitory activity” value is recorded as “approximately 30%”.
